Data published in patent EP2150534B1, “ISOQUINOLINONE DERIVATIVES AS NK3 ANTAGONISTS” (H. Lundbeck A/S, priority 2007, dated 2008).

Legend:
human NK3 receptor [1] = biological target: T1, human NK3 receptor (Homo sapiens, UniProt P29371); test: NK3 receptor binding assay (SPA-based competition binding with 125I-NKB, membranes of BHK cells); conditions: table of Example 10; affinity obtained as described in Example 9; read-out: Affinity Ki
T1 construct: expressed in transfected cells; membranes prepared from them
T1 sequence (P29371 1-465): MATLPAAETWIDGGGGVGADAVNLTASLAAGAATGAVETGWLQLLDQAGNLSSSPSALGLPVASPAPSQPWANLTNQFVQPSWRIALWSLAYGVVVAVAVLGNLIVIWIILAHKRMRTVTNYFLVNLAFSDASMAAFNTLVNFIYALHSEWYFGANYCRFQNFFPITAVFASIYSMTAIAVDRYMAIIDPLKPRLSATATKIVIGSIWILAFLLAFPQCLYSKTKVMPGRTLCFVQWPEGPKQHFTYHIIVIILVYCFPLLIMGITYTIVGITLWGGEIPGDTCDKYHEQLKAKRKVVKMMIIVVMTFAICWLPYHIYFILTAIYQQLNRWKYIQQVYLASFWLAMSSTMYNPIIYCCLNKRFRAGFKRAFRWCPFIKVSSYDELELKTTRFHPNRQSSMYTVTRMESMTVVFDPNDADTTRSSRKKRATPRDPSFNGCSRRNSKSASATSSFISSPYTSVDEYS
Description: Membranepreparation: BHK cells stably expressing the human NK3 receptor were seeded in harvesting plates in Dulbeccos MEM containing GlutaMax (862 mg/l), 1 mM sodium pyruvate, 10% fetal calf serum, 1% Pen/Strep, I mg/ml G418 and were grown at 34 °C in a humidified atmosphere containing 10% CO2. To increase receptor expression, 10 µM trichotatin A was added to the media 24 hours before harvest of the cells at a confluency of app 90%. Prior to the harvesting, the cells were washed twice with PBS without Mg^2+ og Ca^2+ and subsequently scrapped of in 10 ml PBS pr harvesting plate. The cells suspension were centrifuged at 1500xG in three minutes before resuspension in 15 mM Tris-HCl pH 7,5 buffer containing 2 mM MgCl2; 0,3 mM EDTA and 1 mM EGTA (buffer A). The cell suspention was homogenised and subsequently centrifuged at 40000xG in 30 minutes. The membrane-pellet was resuspended in buffer A containing 250 mM sucrose, alliquoted and stored at - 80°C.
Affinity assay description: The assay was performed as a SPA-based competition-binding assay in a 50 mM Tris pH 7.4 assay buffer containing 120 mM NaCl, 3 mM MnCl2, 40 µg/ml bacitracin, 2 µg/ml Chymostatin, 1 µg/ml Phosphoramidon and 4 µg/ml Leupeptin. App 0.02 nM ^125I-NKB was mixed with test compounds before addition of 4 µg of the homogenised NK3 membrane preparation and 0,025 mg SPA beads in a total volume of 60 µl. The assay plate was subsequently under agitation incubated for 90 min at RT. The plate was centrifugated 10 minutes at 500xG and counted in a topcounter 5 minuttes pr well.
The non-specific binding constituted app 5 % of the total binding.
Data points were expressed in percent of the specific binding of ^125I-NKB and the IC50 values (concentration causing 50 percent inhibition of ^125I-NKB specific binding) were determined by non-linear regression analysis using a sigmoidal variable slope curve fitting. The dissociation constant (Ki) were calculated from the Cheng Prusoff equation (Ki = IG50/(1+(L/KD))), where the concentration of free radioligand L is approximated to the concentration of added ^125I-NKB in the assay (app 0,02 nM).
The KD of ^125I-NKB was determined to be 0,7 nM from three independent saturation assays each performed with duplicate determinations. Bmax was app 2 pmol/mg.

human NK3 receptor [2] = biological target: T1, human NK3 receptor; test: NK3 receptor efficacy and potency assay (FLIPR Calcium 4 assay, BHK cells; agonist and antagonist mode versus NKB); format: cell-based; conditions: read-out: Potency cIC50
Description: BHK cells stably expressing the human NK3 receptor were seeded in 100 µl media in black walled clear-base 96-wells plates (Costar) aiming at a confluency of 95-100% at the day of assay. The assay was performed according to the FLIPR Calcium 4 Assay kit (Molecular Devices). At the day of the assay, the media was removed and the cells were washed once with the HBSS buffer (Hanks BSS buffer, pH 7,4 containing 20 mM Hepes) before 100 µl of a solution of the calcium assay reagent dissolved in the HBSS buffer containing 2,5 mM probinicid was added to the cells. The plates were incubated for 60 min at 34°C, 10% CO2 before use in the FLIPR for examination of fluorescence.
For efficacy and potency evaluation of compounds, these were diluted in HBSS buffer prior to test. For test of agonist activity, 25 µl of the diluted compound solution was added and the plate was analyzed for 5 minutes in the FLIPR. […] The plates were subsequently analyzed for 5 minutes before the assay was terminated. The maximal increase in fluorescence over background following each ligand addition was determined.

Row | Ki (human NK3 receptor [1]) | IC50 (human NK3 receptor [2]) | SMILES
1 | 210 nM | 520 nM | CC[C@H](NC(=O)c1c(CNC(C)(C)C)n(-c2ccccc2)c(=O)c2ccccc12)c1ccccc1 [Example 2ec, 3-(tert-Butylamino-methyl)-1-oxo-2-phenyl-1,2-dihydro-isoquinoline-4-carboxylic acid ((S)-1-phenyl-propyl)-amide]
2 | 8.2 nM | 63 nM | O=C(NC(c1cccc(F)c1)C1CC1)c1c(CN2CCN(Cc3ccncc3)CC2)n(-c2ccccc2)c(=O)c2ccccc12 (stereo not shown) [Example 2hw, 1-Oxo-2-phenyl-3-(4-pyridin4-methyl-piperazin-1-ylmethyl)-1,2-dihydro-isoquinoline-4-carboxylic acid [cyclopropyl-(3-fluoro-phenyl)-methyl]-amide]
